How the values were obtained:
NMDA-induced death = assay: NMDA test (25 mg/kg i.v.), prevention of NMDA-induced death (neuroprotective efficacy); type: in vivo, male NMRI mice; details: Mus musculus, po, NMDA 25 mg/kg i.v.; for ED50: 1 h, dose protecting 50% of animals against NMDA-induced death one hour after application; for responders at 100 mg/kg: 100 mg/kg p.o. 1 h before test; for responders at 25 mg/kg: 25 mg/kg p.o. 1 h before test; for responders at 5 mg/kg: 5 mg/kg p.o. 1 h before test
Description: In order to determine the neuroprotective and anticonvulsive activity of the compounds in accordance with the invention of the general formula I, two slightly different methods were employed as follows: […]
1. In order to determine the neuroprotective efficacy NMDA at a rate of 25 mg/kg/10 ml was administered intravenously to male NMRI mice with a body weight of 20 to 25 g. As a consequence of this application the animals suffer clonic and partly tonic convulsions, which lead to death. As a criterion for the efficacy of the investigated compounds prevention of death is used.
All animals used in the investigations had free access to food and water prior to the experiments. The test and reference substances were all administered as a suspension in 0.2% agar or water, partly by the intermediary of solution promoters such as for instance PEG-400, perorally using an esophageal probe. Control animals received the same volumes of the solvent with optional solution promoters. One hour after the application of the substance NMDA was administered intravenously and the animals observed for the occurrence of convulsions.
In table 1 the results of the tests (NMDA 25 mg i.v.) performed in accordance with method 1 are compiled with dosages of 5-100 mg of the compounds in accordance with the invention per kg of body weight as compared with known NMDA-antagonists. As a percentage efficacy the percentage of surviving animals is used.
The determination of the ED50 values was performed in accordance with the method described in Lichtfield and Wilcoxon, J. Pharmacol. exp. Therapeut. 96, 99 (1949) in each case with 4 to 5 groups of 10 animals per dosage rate.

[1] = tested on: ovalbumin-induced anaphylactic paw edema; assay: Passive rat paw anaphylaxy (inhibition of edema volume; antiallergic and anti-inflammatory); type: in vivo, male Sprague-Dawley rats; details: for inhibition in vivo at 25 mg/kg: 25 mg/kg p.o. 1 h before test; for inhibition in vivo at 30 mg/kg: 30 mg/kg p.o. 1 h before test
Description: The determination of the antiallergic and anti-inflammatory properties of the compounds in accordance with the invention was using a passive rat paw anaphylaxy model.
Male Sprague-Dawley rats were utilized for all tests. The animals were kept under standardized environmental conditions with free access to food and water. For sensitization to the antigen 100 μl of a mouse antiserum to ovalbumin was injected sublplantarly into the left rear paw. […] The opposite paw was for control injected subplantarly only with 100 μl of the solvent (sterile physiological NaCl solution). Overnight the investigated animals were deprived of food but had water ad lib.
Per group in all tests between 6 and 8 animals were used. One hour later the anaphylactic reaction was caused by the intravenous injection of 10 mg/10 ml/kg ovalbumin in physiological NaCl solution. […] The edema volume was calculated from the difference between the values of the two paws. The antiallergic action is in this case expressed as a percentage inhibition of the edema volume of the animals in the test group as compared with control groups undergoing parallel investigation. […] The determination of the ED50 values was performed by linear regression after log transformation of the administered doses, at least three dosage rates being employed.

[2] = read-out: Protective action (percentage of surviving animals)
[3] = Rattus norvegicus, po, read-out: Protective action (percentage inhibition of edema volume)
[4] = Rattus norvegicus, po, p.o. 1 h before test, linear regression after log transformation of doses

COc1cc2oc(=O)ccc2cc1OCC(O)CN1CCC(C(O)(c2ccc(F)cc2)c2ccc(F)cc2)CC1 (racemic) [Example 25, (±)-6-{3-[4-(bis(4-fluorophenyl)hydroxymethyl)-1-piperidinyl]-2-hydroxypropoxy}-7-methoxy-2H-1-benzopyran-2-one]
ED50 (NMDA-induced death): 77 mg/kg | responders at 100 mg/kg (NMDA-induced death; [2]): 100% | inhibition in vivo at 25 mg/kg [1, 3]: 43%

COc1cc2ccc(=O)oc2cc1OCCCN1CCN(C(c2ccc(F)cc2)c2ccc(F)cc2)CC1 [Example 8, 7-{3-[4-(bis(4-fluorophenyl)methyl)-1-piperazinyl]propoxy}-6-methoxy-2H-1-benzopyran-2-one]
responders at 100 mg/kg (NMDA-induced death; [2]): 62.5% | inhibition in vivo at 25 mg/kg [1, 3]: 35%

CC(C)Oc1cc2ccc(=O)oc2cc1OCCCN1CCC(c2ccccc2)CC1 [Example 12, 6-(1-methylethoxy)-7-[3-(4-phenyl-1-piperidinyl)propoxy]-2H-1-benzopyran-2-one]
responders at 25 mg/kg (NMDA-induced death; [2]): 62.5% | inhibition in vivo at 25 mg/kg [1, 3]: 12%

COc1cc2ccc(=O)oc2cc1OCCCN1CCC(C(O)(c2ccc(F)cc2)c2ccc(F)cc2)CC1 [Example 14, 7-{3-[4-(bis(4-fluorophenyl)hydroxymethyl)-1-piperidinyl]propoxy}-6-methoxy-2H-1-benzopyran-2-one]
responders at 25 mg/kg (NMDA-induced death; [2]): 37.5% | Action remains for a period with full effect ([1]; 25 mg/kg p.o.): 24 h | inhibition in vivo at 25 mg/kg [1, 3]: 81% | ED50 [1, 4]: 2.4 mg/kg

COc1cc2oc(=O)ccc2cc1OCCCN1CCC(=C(c2ccc(F)cc2)c2ccc(F)cc2)CC1 [Example 15, 6-{3-[4-(bis(4-fluorophenyl)methylene)-1-piperidinyl]propoxy}-7-methoxy-2H-1-benzopyran-2-one]
responders at 25 mg/kg (NMDA-induced death; [2]): 50% | inhibition in vivo at 25 mg/kg [1, 3]: 60%

COc1cc2oc(=O)ccc2cc1OCCCN1CCC(C(c2ccccc2)c2ccccc2)CC1 [Example 16, 6-{3-[4-(diphenylmethyl)-1-piperidinyl]propoxy}-7-methoxy-2H-1-benzopyran-2-one]
responders at 100 mg/kg (NMDA-induced death; [2]): 75% | inhibition in vivo at 25 mg/kg [1, 3]: 60%

COc1cc2ccc(=O)oc2cc1OCCCN1CCC(C(O)(c2ccccc2)c2ccccc2)CC1 [Example 17, 7-{3-[4-(diphenylhydroxymethyl)-1-piperidinyl]-propoxy}-6-methoxy-2H-1-benzopyran-2-one]
responders at 100 mg/kg (NMDA-induced death; [2]): 37.5% | inhibition in vivo at 25 mg/kg [1, 3]: 83%

COc1cc2oc(=O)cc(C)c2cc1OCCCN1CCN(c2ccccc2)CC1 [Example 26, 7-methoxy-4-methyl-6-[3-(4-phenyl-1-piperazinyl)propoxy]-2H-1-benzopyran-2-one]
responders at 25 mg/kg (NMDA-induced death; [2]): 62.5% | inhibition in vivo at 25 mg/kg [1, 3]: 66%

COc1cc2oc(=O)cc(C)c2cc1OCCCN1CCC(c2ccccc2)CC1 [Example 27, 7-methoxy-4-methyl-6-[3-(4-phenyl-1-piperidinyl)propoxy]-2H-1-benzopyran-2-one]
responders at 25 mg/kg (NMDA-induced death; [2]): 50% | inhibition in vivo at 25 mg/kg [1, 3]: 40%

COc1cc2oc(=O)c(C)c(C)c2cc1OCCCN1CCN(c2ccccc2)CC1 [Example 28, 7-methoxy-3,4-dimethyl-6-[3-(4-phenyl-1-piperazinyl)propoxy]-2H-1-benzopyran-2-one]
responders at 25 mg/kg (NMDA-induced death; [2]): 87.5% | inhibition in vivo at 25 mg/kg [1, 3]: 72%

COc1cc2oc(=O)cc(-c3ccccc3)c2cc1OCCCN1CCN(c2ccccc2)CC1 [Example 39, 7-methoxy-4-phenyl-6-[3-(4-phenyl-1-piperazinyl)propoxy]-2H-1-benzopyran-2-one]
responders at 25 mg/kg (NMDA-induced death; [2]): 62.5% | inhibition in vivo at 25 mg/kg [1, 3]: 26%

COc1cc2oc(=O)cc(-c3ccccc3)c2cc1OCCCN1CCC(c2ccccc2)CC1 [Example 40, 7-methoxy-4-phenyl-6-[3-(4-phenyl-1-piperidinyl)propoxy]-2H-1-benzopyran-2-one]
responders at 100 mg/kg (NMDA-induced death; [2]): 37.5% | inhibition in vivo at 25 mg/kg [1, 3]: 27%

COc1cc2oc(=O)c3c(c2cc1OCCCN1CCN(c2ccccc2C)CC1)CCC3 [Example 59, 2,3-dihydro-7-methoxy-8-{3-[4-(2-methylphenyl)-1-piperazinyl]propoxy}cyclopenta[c][1]benzopyran-4(1H)-one]
ED50 (NMDA-induced death): 1.1 mg/kg | responders at 5 mg/kg (NMDA-induced death; [2]): 100%

COc1cc2oc(=O)c3c(c2cc1OCCCN1CCN(c2ccccc2O)CC1)CCC3 [Example 60, 2,3-dihydro-8-{3-[4-(2-hydroxyphenyl)-1-piperazinyl]propoxy}-7-methoxy-cyclopenta[c][1]benzopyran-4(1H)-one]
responders at 5 mg/kg (NMDA-induced death; [2]): 62.5%

COc1cc2oc(=O)c3c(c2cc1OCCCN1CCN(c2ccc([N+](=O)[O-])cc2)CC1)CCC3 [Example 61, 2,3-dihydro-7-methoxy-8-{3-[4-(4-nitrophenyl)-1-piperazinyl]propoxy}cyclopenta[c][1]benzopyran-4(1H)-one]
responders at 100 mg/kg (NMDA-induced death; [2]): 25%

COc1cc2oc(=O)c3c(c2cc1OCCCN1CCN(c2ccccn2)CC1)CCC3 [Example 62, 2,3-dihydro-7-methoxy-8-{3-[4-(2-pyridinyl)-1-piperazinyl]propoxy}cyclopenta[c][1]benzopyran-4(1H)-one]
responders at 25 mg/kg (NMDA-induced death; [2]): 87.5%

COc1cc2oc(=O)c3c(c2cc1OCCCN1CCN(c2ncccn2)CC1)CCC3 [Example 63, 2,3-dihydro-7-methoxy-8-{3-[4-(2-pyrimidinyl)-1-piperazinyl]propoxy}cyclopenta[c][1]benzopyran-4(1H)-one]
responders at 25 mg/kg (NMDA-induced death; [2]): 12.5%

COc1cc2oc(=O)c3c(c2cc1OCCCN1CCC(Cc2ccccc2)CC1)CCC3 [Example 64]
responders at 25 mg/kg (NMDA-induced death; [2]): 75%

COc1cc2oc(=O)c3c(c2cc1OCCCN1CCC(C(O)(c2ccc(F)cc2)c2ccc(F)cc2)CC1)CCC3 [Example 65, 8-{3-[4-(bis(4-fluorophenyl)hydroxymethyl)-1-piperidinyl]propoxy}-2,3-dihydro-7-methoxy-cyclopenta[c][1]benzopyran-4(1H)-one]
responders at 100 mg/kg (NMDA-induced death; [2]): 12.5%

COc1cc2oc(=O)c3c(c2cc1OCCCN1CCN(c2ccccc2F)CC1)CCC3 [Example 66, 8-{3-[4-(2-fluorophenyl)-1-piperazinyl]propoxy}-2,3-dihydro-7-methoxy-cyclopenta[c][1]benzopyran-4(1H)-one]
responders at 5 mg/kg (NMDA-induced death; [2]): 100%

COc1ccc(CCN2CCC(Nc3nc4ccccc4n3Cc3ccc(F)cc3)CC2)cc1 [astemizole, reference compound]
inhibition in vivo at 10 mg/kg ([1]; Rattus norvegicus, po, 10 mg/kg p.o. 1 h before test, read-out: Protective action (percentage inhibition of edema volume)): 70% | ED50 [1, 4]: 3.1 mg/kg

O=C(O)c1cc(=O)c2c(OCC(O)COc3cccc4oc(C(=O)O)cc(=O)c34)cccc2o1 [cromoglycate, reference compound]
inhibition in vivo at 2.25 mg/kg ([1]; Rattus norvegicus, 2.25 mg/kg, intravenous immediately prior to test, read-out: Protective action (percentage inhibition of edema volume)): 58% | ED50 ([1]; Rattus norvegicus, intravenous treatment immediately prior to test (footnote), head says p.o.): 1.1 mg/kg | oral effectiveness ([1]; oral): orally not effective

CN(C)CCOC(c1ccccc1)c1ccccc1 [diphenhydramine, reference compound]
inhibition in vivo at 100 mg/kg ([1]; Rattus norvegicus, po, 100 mg/kg p.o. 1 h before test, read-out: Protective action (percentage inhibition of edema volume)): 54% | ED50 [1, 4]: 73 mg/kg

CNC1(c2ccccc2Cl)CCCCC1=O (stereo not shown) [ketamine, reference compound]
responders at 20 mg/kg (NMDA-induced death; 20 mg/kg p.o. 1 h before test, read-out: Protective action (percentage of surviving animals)): 0%

CN1CCC(=C2c3ccccc3CC(=O)c3sccc32)CC1 [ketotifen, reference compound]
inhibition in vivo at 30 mg/kg [1, 3]: 77% | ED50 [1, 4]: 5.6 mg/kg

O=c1[nH]c2ccccc2n1CCCN1CCN(C(c2ccccc2)c2ccccc2)CC1 [oxatomide, reference compound]
inhibition in vivo at 30 mg/kg [1, 3]: 75% | ED50 [1, 4]: 7.3 mg/kg

Cc1c(C)c2ccc(OCCCN3CCN(Cc4ccc(Cl)cc4)CC3)cc2oc1=O [picumast, reference compound]
inhibition in vivo at 25 mg/kg [1, 3]: -21%

From patent US5428038A, “Benzopyranones, a method for producing them and uses therefor” (Dr. Willmar Schwabe GmbH & Co., priority 1991, dated 1995)
